Test results reported in patent publication US10131652B2, “Pyrimidinyloxy benzene derivatives as herbicides” (E. I. DU PONT DE NEMOURS AND COMPANY, priority 2014, dated 2018).
Read-outs that look alike come from different tables or passages of the source.

Columns and labels:
Format in all cases: in vivo
[1] = test system: blackgrass (Alopecurus myosuroides); assay: Test B postemergence plant response
How it was run: (§1)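 Weeds grown in loam soil/sand pots were sprayed postemergence at 2 to 10 cm height, one- to two-leaf stage. After approximately 10 days in greenhouse, injury was rated visually against untreated controls on a 0 (no effect) to 100 (complete control) scale; dash means no test result.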

[2] = test system: galium (catchweed bedstraw, Galium aparine); assay: Test B postemergence plant response
How it was run: as §1

[3] = test system: barnyardgrass (Echinochloa crus-galli); assay: Test C flooded paddy test plant response; conditions: Flood, 250 g ai/ha, scale of 0 to 100 where 0 is no effect and 100 is complete control, 13 to 15 days
How it was run: (§2)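 Visual injury ratings (0, no effect; 100, complete control) were assigned after 13 to 15 days in a greenhouse, comparing treated plants with controls. Compounds had been added straight into paddy water over 2-leaf-stage plants flooded to 3 cm.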

[4] = test system: ducksalad (Heteranthera limosa); assay: Test C flooded paddy test plant response; conditions: Flood, 250 g ai/ha, scale of 0 to 100 where 0 is no effect and 100 is complete control, 13 to 15 days
How it was run: as §2

[5] = test system: small-flower umbrella sedge (Cyperus difformis); assay: Test C flooded paddy test plant response; conditions: Flood, 250 g ai/ha, scale of 0 to 100 where 0 is no effect and 100 is complete control, 13 to 15 days
How it was run: as §2

rice (Oryza sativa) = assay: Test C flooded paddy test plant response; conditions: Flood, 250 g ai/ha, scale of 0 to 100 where 0 is no effect and 100 is complete control, 13 to 15 days
How it was run: as §2

[6] = test system: giant foxtail (Setaria faberii); assay: Test B pre-/postemergence plant response; conditions: for pest or weed control at 500 g/ha: 500 g ai/ha
How it was run: (§3)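 Seeds in loam–sand blend given preemergence soil spray; separately, plants at one- to two-leaf stage (2–10 cm) sprayed postemergence, compounds in non-phytotoxic solvent with surfactant. Injury rated visually versus untreated controls after ~10 days in greenhouse, 0 (no effect) to 100 (complete control).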

[7] = test system: barnyardgrass (Echinochloa crus-galli); assay: Test B pre-/postemergence plant response; conditions: for pest or weed control at 500 g/ha: 500 g ai/ha
How it was run: as §3

[8] = test system: wheat (Triticum aestivum); assay: Test B pre-/postemergence plant response
How it was run: as §3

corn (Zea mays) = assay: Test B pre-/postemergence plant response
How it was run: as §3

[9] = test system: pigweed (Amaranthus retroflexus); assay: Test B pre-/postemergence plant response; conditions: for pest or weed control at 500 g/ha: 500 g ai/ha
How it was run: as §3

[10] = test system: ragweed (common ragweed, Ambrosia elatior); assay: Test B pre-/postemergence plant response
How it was run: as §3

kochia (Kochia scoparia) = assay: Test B pre-/postemergence plant response
How it was run: as §3

[11] = test system: Italian ryegrass (Lolium multiflorum); assay: Test B pre-/postemergence plant response
How it was run: as §3

[12] = 31 g ai/ha, Postemergence, 0 to 100 scale, 0 no effect, 100 complete control
[13] = 125 g ai/ha, postemergence, 0 to 100 scale, 0 no effect, 100 complete control
[14] = Preemergence, 31 g ai/ha, 0 to 100 scale (0 no effect, 100 complete control)
[15] = Preemergence, 125 g ai/ha, 0 to 100 scale where 0 is no effect and 100 is complete control
[16] = Postemergence, 500 g ai/ha, 0 to 100 scale (0 no effect, 100 complete control)
[17] = Preemergence, 125 g ai/ha, 0 to 100 scale (0 no effect, 100 complete control)
[18] = Preemergence, 500 g ai/ha, 0 to 100 scale where 0 is no effect and 100 is complete control

With `COc1cccc(Oc2ncc(Cl)cn2)c1-c1cc(C(F)(F)F)no1` [Compound 104] as the molecule, how does the “Plant response rating, Blackgrass” value [1, 12] read?
The value was 70.

And the “Plant response rating, Blackgrass” value [1, 13]?
Its value is 100.

What about the “Plant response rating, Galium” value [2, 12] of the same molecule?
The value was 90.

What about the “Plant response rating, Galium” value [2, 13] of the same molecule?
Its value is 100.

And the “Barnyardgrass plant response rating” value [3]?
Its value is 20.

What about the “Ducksalad plant response rating” value [4] of the same molecule?
Its value is 75.

And the “Sedge, Umbrella plant response rating” value [5]?
Its value is 80.

What about the “Rice plant response rating” value (rice (Oryza sativa)) of the same molecule?
The value was 0.

What about the “Plant response rating, Foxtail, Giant” value [6, 12] of the same molecule?
Its value is 20.

What about the “Plant response rating, Foxtail, Giant” value [6, 13] of the same molecule?
The value was 80.

And the “Foxtail, Giant plant response rating” value [6, 14]?
Its value is 40.

And the “Plant response rating, Foxtail, Giant” value [6, 15]?
The value was 100.

What about the “Plant response rating, Barnyardgrass” value [7, 12] of the same molecule?
Its value is 10.

And the “Plant response rating, Barnyardgrass” value [7, 13]?
The value was 60.

And the “Barnyardgrass plant response rating” value [7, 14]?
The value was 20.

What about the “Plant response rating, Barnyardgrass” value [7, 15] of the same molecule?
The value was 80.

What about the “Plant response rating, Wheat” value [8, 12] of the same molecule?
Its value is 0.

What about the “Plant response rating, Wheat” value [8, 13] of the same molecule?
Its value is 10.

What about the “Plant response rating, Corn” value (corn (Zea mays); [12]) of the same molecule?
The value was 10.

What about the “Plant response rating, Corn” value (corn (Zea mays); [13]) of the same molecule?
Its value is 30.

And the “Plant response rating, Pigweed” value [9, 12]?
The value was 90.

What about the “Plant response rating, Pigweed” value [9, 13] of the same molecule?
Its value is 90.

What about the “Pigweed plant response rating” value [9, 14] of the same molecule?
Its value is 80.

What about the “Plant response rating, Pigweed” value [9, 15] of the same molecule?
The value was 100.

And the “Plant response rating, Ragweed” value [10, 12]?
The value was 10.

What about the “Plant response rating, Ragweed” value [10, 13] of the same molecule?
The value was 10.

What about the “Ragweed plant response rating” value [10, 14] of the same molecule?
The value was 0.

What about the “Plant response rating, Ragweed” value [10, 15] of the same molecule?
The value was 0.

What about the “Plant response rating, Kochia” value (kochia (Kochia scoparia); [12]) of the same molecule?
Its value is 50.

What about the “Plant response rating, Kochia” value (kochia (Kochia scoparia); [13]) of the same molecule?
The value was 80.

What about the “Kochia plant response rating” value (kochia (Kochia scoparia); [14]) of the same molecule?
The value was 0.

What about the “Plant response rating, Kochia” value (kochia (Kochia scoparia); [15]) of the same molecule?
The value was 10.

What about the “Plant response rating, Ryegrass, Italian” value [11, 12] of the same molecule?
Its value is 0.

And the “Plant response rating, Ryegrass, Italian” value [11, 13]?
Its value is 30.

And the “Ryegrass, Italian plant response rating” value [11, 14]?
Its value is 0.

What about the “Plant response rating, Ryegrass, Italian” value [11, 15] of the same molecule?
The value was 10.

With `N#Cc1cccc(Oc2ncc(Cl)cn2)c1-c1cc(C(F)(F)F)ccn1` [Compound 158, 5-chloro-2-[3-cyano-2-[4-(trifluoromethyl)-2-pyridinyl]phenoxy]pyrimidine] as the molecule, how does the “Plant response rating, Blackgrass” value [1, 13] read?
The value was 30.

And the “Plant response rating, Blackgrass” value [1, 16]?
Its value is 90.

And the “Plant response rating, Galium” value [2, 13]?
Its value is 30.

What about the “Plant response rating, Galium” value [2, 16] of the same molecule?
The value was 100.

What about the pest or weed control at 250 g/ha ([3]; Echinochloa crus-galli, read-out: Barnyardgrass plant response rating) of the same molecule?
The pest or weed control at 250 g/ha was 0%.

What about the pest or weed control at 250 g/ha ([4]; Heteranthera limosa, read-out: Ducksalad plant response rating) of the same molecule?
The pest or weed control at 250 g/ha was 50%.

What about the pest or weed control at 250 g/ha ([5]; Cyperus difformis, read-out: Sedge, Umbrella plant response rating) of the same molecule?
The pest or weed control at 250 g/ha was 0%.

And the plant injury at 250 g/ha (rice (Oryza sativa); Oryza sativa, read-out: Rice plant response rating)?
Its plant injury at 250 g/ha is 0%.

What about the “Foxtail, Giant plant response rating” value [6, 17] of the same molecule?
Its value is 90.

And the pest or weed control at 125 g/ha ([6]; Setaria faberi, post-emergence, 240 h, 125 g ai/ha, postemergence, 0 to 100 scale, 0 no effect, 100 complete control, read-out: Plant response rating, Foxtail, Giant)?
The pest or weed control at 125 g/ha was 50%.

And the pest or weed control at 500 g/ha ([6]; Setaria faberi, post-emergence, 240 h, Postemergence, 0 to 100 scale (0 no effect, 100 complete control), read-out: Plant response rating, Foxtail, Giant)?
The pest or weed control at 500 g/ha was 100%.

What about the pest or weed control at 500 g/ha ([6]; Setaria faberi, pre-emergence, 240 h, Preemergence, 0 to 100 scale where 0 is no effect and 100 is complete control, read-out: Plant response rating, Foxtail, Giant) of the same molecule?
The pest or weed control at 500 g/ha was 100%.

What about the pest or weed control at 125 g/ha ([7]; Echinochloa crus-galli, post-emergence, 240 h, 125 g ai/ha, postemergence, 0 to 100 scale, 0 no effect, 100 complete control, read-out: Plant response rating, Barnyardgrass) of the same molecule?
The pest or weed control at 125 g/ha was 60%.

And the pest or weed control at 500 g/ha ([7]; Echinochloa crus-galli, post-emergence, 240 h, Postemergence, 0 to 100 scale (0 no effect, 100 complete control), read-out: Plant response rating, Barnyardgrass)?
Its pest or weed control at 500 g/ha is 100%.

And the pest or weed control at 500 g/ha ([7]; Echinochloa crus-galli, pre-emergence, 240 h, Preemergence, 0 to 100 scale where 0 is no effect and 100 is complete control, read-out: Plant response rating, Barnyardgrass)?
Its pest or weed control at 500 g/ha is 100%.

And the “Barnyardgrass plant response rating” value [7, 17]?
Its value is 90.

And the plant injury at 125 g/ha ([8]; Triticum aestivum, post-emergence, 240 h, 125 g ai/ha, postemergence, 0 to 100 scale, 0 no effect, 100 complete control, read-out: Plant response rating, Wheat)?
The plant injury at 125 g/ha was 20%.

And the plant injury at 500 g/ha ([8]; Triticum aestivum, post-emergence, 240 h, Postemergence, 500 g ai/ha, 0 to 100 scale (0 no effect, 100 complete control), read-out: Plant response rating, Wheat)?
Its plant injury at 500 g/ha is 70%.

And the Corn plant response rating (crop injury, 0 = no effect, 100 = complete kill) at 125 g/ha (corn (Zea mays); Zea mays, post-emergence, 240 h, 125 g ai/ha, postemergence, 0 to 100 scale, 0 no effect, 100 complete control)?
Its Corn plant response rating (crop injury, 0 = no effect, 100 = complete kill) at 125 g/ha is 30%.

What about the Corn plant response rating (crop injury, 0 = no effect, 100 = complete kill) at 500 g/ha (corn (Zea mays); Zea mays, post-emergence, 240 h, Postemergence, 500 g ai/ha, 0 to 100 scale (0 no effect, 100 complete control)) of the same molecule?
The Corn plant response rating (crop injury, 0 = no effect, 100 = complete kill) at 500 g/ha was 90%.

And the pest or weed control at 125 g/ha ([9]; Amaranthus retroflexus, post-emergence, 240 h, 125 g ai/ha, postemergence, 0 to 100 scale, 0 no effect, 100 complete control, read-out: Plant response rating, Pigweed)?
Its pest or weed control at 125 g/ha is 80%.

What about the pest or weed control at 500 g/ha ([9]; Amaranthus retroflexus, post-emergence, 240 h, Postemergence, 0 to 100 scale (0 no effect, 100 complete control), read-out: Plant response rating, Pigweed) of the same molecule?
The pest or weed control at 500 g/ha was 100%.

What about the pest or weed control at 500 g/ha ([9]; Amaranthus retroflexus, pre-emergence, 240 h, Preemergence, 0 to 100 scale where 0 is no effect and 100 is complete control, read-out: Plant response rating, Pigweed) of the same molecule?
Its pest or weed control at 500 g/ha is 100%.

What about the “Pigweed plant response rating” value [9, 17] of the same molecule?
The value was 90.

What about the “Plant response rating, Ragweed” value [10, 13] of the same molecule?
Its value is 0.

What about the “Plant response rating, Ragweed” value [10, 16] of the same molecule?
Its value is 30.

And the “Ragweed plant response rating” value [10, 17]?
Its value is 0.

And the “Plant response rating, Ragweed” value [10, 18]?
The value was 20.

What about the “Plant response rating, Kochia” value (kochia (Kochia scoparia); [13]) of the same molecule?
The value was 70.

And the “Plant response rating, Kochia” value (kochia (Kochia scoparia); [16])?
The value was 90.

What about the “Kochia plant response rating” value (kochia (Kochia scoparia); [17]) of the same molecule?
Its value is 100.

And the “Plant response rating, Kochia” value (kochia (Kochia scoparia); [18])?
Its value is 100.

And the “Plant response rating, Ryegrass, Italian” value [11, 13]?
Its value is 0.

What about the “Plant response rating, Ryegrass, Italian” value [11, 16] of the same molecule?
Its value is 70.

What about the “Ryegrass, Italian plant response rating” value [11, 17] of the same molecule?
Its value is 0.

And the “Plant response rating, Ryegrass, Italian” value [11, 18]?
Its value is 20.
